Data set [1] relates to glioma stem cell line U3013. Briefly: In vitro cancer cell and CSC viability assay (ATP quantification, CellTiterGlo). Format: cell-based, human. The note with it: for IC95 for cell death: glioblastoma cells (U3013); for EC50: Homo sapiens, U3013, 24 hours exposure, read-out: In vitro efficacy (viability) EC50; for potency with respect to S10 (viability): individual isomers of racemic S10. The procedure:
The ability of Examples S1-S23 to selectively induce cytotoxicity in glioma/glioblastoma cancer cells or glioma/glioblastoma cancer stem cells was determined by quantification of ATP production in glioma stem cell line U3013 in the presence of using CellTiterGlo reagent (Promega). Cells were exposed to compound in serial dilution in the range 1 nM to 50 µM for 24 hours and viability assessed with respect to negative control (dmso, no cell death) and positive control (staurosporine, full cell death). […] The EC50 of S10 remained largely similar at 2, 3 and 4 days of incubation. […] The individual isomers (S21-S23) of racemic S10 were evaluated in order to determine the enantiospecific pharmacology of the individual isomers.
Negative (100% DMSO) and positive (10 mM S10 in 100% DMSO) controls were placed in rows 1-4 and 5-8, respectively, of column 12. The wells were diluted with 190 μl of the corresponding growth media and 5 μl of each well of compound solution transferred to quadruplicate wells of a sterile 384-well black clear bottom plate (BD Falcon) containing GSC at 70% confluency in 45 μl growth media. The plate was incubated for 24 hours, after which the plate was removed from the incubator and each well imaged in bright-field using an Operetta Imaging system (PerkinElmer) at 37° C. and 5% CO2 to determine vacuole accumulation at each concentration. The plate was then allowed to cool to room temperature and each well treated with 25 μl freshly CellTiterGlo (Promega) reagent. The plate was shaken for 15 minutes and luminescence measured using a Victor3 (Perkin Elmer) microtiterplate reader. Total luminescence was normalized relative to control and curve fitting performed using GraphPad Prism (v6.02) software.

In data set [2] the test system is U87 glioma cell. Conditions: at concentrations of 10 micromolar; cited from earlier work.
Data set [3] in a line: Pharmacokinetic evaluation of Vacquinol-1 stereoisomers, plasma and brain. Conditions: for Kp / AUC(0-t): NMRI (single stereoisomers SR/RS), BALB/c (racemate), mouse; for Kp: brain and plasma, 20 mg/kg, after oral dosing, read-out: Cmax exposures ratio (Cmax(brain)/Cmax(plasma)); for AUC(0-t): brain, read-out: AUClast Brain. The format is in vivo, NMRI (SR/RS) or BALB/c (Vrac) mice. How it is done:
The pharmacokinetics of Vacquinol-1 (racemic), Vacquinol-1RS and Vacquinol-1SR, were determined in NMRI (SR/RS) or BALB/c (Vrac) mice following single intravenous (i.v.) or per oral (p.o) administration of 2 or 20 mg/kg Vacquinol-1, respectively. Blood and brain samples were taken from animals at the following nominal time points: 15, 30, and 60 minutes, and 2, 4, 6, 8, 24, 48, 72 and 144 hours after dosing (n=3/time-point). Bioanalytical quantification of Vacquinol-1 was analysed in plasma and brain samples by a UPLC-MS/MS.
Pharmacokinetics were calculated by non-compartmental analysis (NCA) from composite (mean) profiles. Nominal sampling times and dose levels have been used for the NCA calculations.

The subject of data set [4] is glioma stem cell line U3013. Briefly: In vitro cancer cell and CSC viability assay (ATP quantification, CellTiterGlo). Conditions: Homo sapiens; 3000 cells/cm2, after 24 hours; read-out: EC50, viability of GSCs. The format is cell-based.

Results on 18 compounds are retold here after patent publication US20160214958A1, “COMPOUNDS AND USE FOR TREATING CANCER” (GLIONOVA AB, priority 2013, published 2016).

Like-named read-outs stand apart in the source and are kept apart here.

For `O[C@@H](c1cc(C(F)(F)F)nc2c(C(F)(F)F)cccc12)[C@H]1CCCCN1` (racemic) [mefloquine, (2,8-bis(trifluoromethyl)quinolin-4-yl)(piperidin-2-yl)methanol, reference compound], the “IC95 for cell death” value in data set [1] was determined as 25.2 µM. Moreover, the “reduction of U87 glioma cell viability” value in data set [2] is recorded as “roughly 50%”.
For the compound `OC(c1cc(-c2ccc(Cl)c(Cl)c2)nc2ccccc12)C1CCCCN1` (stereo not shown) [Compound S7, (2-(3,4-dichlorophenyl)quinolin-4-yl)(piperidin-2-yl)methanol], in data set [1], the EC50 came to 1.59 µM.
As to `C#Cc1ccc(-c2cc(C(O)C3CCCCN3)c3ccccc3n2)cc1` (stereo not shown) [Compound S8, (2-(4-ethynylphenyl)quinolin-4-yl)(piperidin-2-yl)methanol], the EC50 in data set [1] was determined as 1.69 µM.
Still for that read-out and setting: next, `CN(Cc1ccc(-c2cc(C(O)C3CCCCN3)c3ccccc3n2)cc1)C(=O)OC(C)(C)C` (stereo not shown) [Compound S9, tert-butyl 4-(4-(hydroxy(piperidin-2-yl)methyl)quinolin-2-yl)benzyl(methyl)carbamate]: 2.25 µM; `OC(c1cc(-c2ccccc2)nc2cc(Cl)ccc12)C1CCCCN1` (stereo not shown) [Compound S11, (7-chloro-2-phenylquinolin-4-yl)(piperidin-2-yl)methanol]: 2.69 µM; `OC(c1cc(-c2ccc(Cl)cc2Cl)nc2ccccc12)C1CCCCN1` (stereo not shown) [Compound S12, (2-(2,4-dichlorophenyl)quinolin-4-yl)(piperidin-2-yl)methanol]: 3.22 µM.
The same measure, in the same setting: next, `OC(c1cc(-c2ccccc2)nc2ccc(Cl)cc12)C1CCCCN1` (stereo not shown) [Compound S13, (6-chloro-2-phenylquinolin-4-yl)(piperidin-2-yl)methanol]: 3.62 µM; `COC(c1cc(-c2ccc(Cl)cc2)nc2ccccc12)C1CCCCN1` (stereo not shown) [Compound S14, 2-(4-chlorophenyl)-4-(methoxy(piperidin-2-yl)methyl)quinoline]: 5.62 µM; `COc1ccc(-c2cc(C(O)C3CCCCN3)c3ccccc3n2)cc1` (stereo not shown) [Compound S15, (2-(4-methoxyphenyl)quinolin-4-yl)(piperidin-2-yl)methanol]: 7.59 µM.
On to `OC(c1cc(-c2ccc(Cl)cc2)nc2ccccc12)C1CCCN1` (stereo not shown) [Compound S16, (2-(4-chlorophenyl)quinolin-4-yl)(pyrrolidin-2-yl)methanol], for which, in data set [1], the EC50 was 8.72 µM.
Same read-out and setting: next, `OC(c1cc(C(F)(F)F)nc2c(Cl)cc(Cl)cc12)C1CCCCN1` (stereo not shown) [Compound S17, (6,8-dichloro-2-(trifluoromethyl)quinolin-4-yl)(piperidin-2-yl)methanol]: 9.6 µM; `OC(c1cc(C2CCCCC2)nc2ccccc12)C1CCCCN1` (stereo not shown) [Compound S18, (2-cyclohexylquinolin-4-yl)(piperidin-2-yl)methanol]: 12.7 µM; `CN1CCCCC1C(O)c1cc(-c2ccc(Cl)cc2)nc2ccccc12` (stereo not shown) [Compound S19, (2-(4-chlorophenyl)quinolin-4-yl)(1-methylpiperidin-2-yl)methanol]: 19.3 µM.
`O[C@H](c1cc(-c2ccc(Cl)cc2)nc2ccccc12)[C@@H]1CCCCN1` [Compound S20, (R)-(2-(4-chlorophenyl)quinolin-4-yl)((S)-piperidin-2-yl)methanol]: in data set [1], the EC50 came out at 1.72 µM, the “IC95 for cell death” value was 8.9 µM and the “potency with respect to S10 (viability)” value was “equal or increased potency”. Moreover, in data set [3] (2 mg/kg i.v., mice), the “AUClast Plasma” value was determined as 62 µg·h/mL, the “Cmax Brain” value was found to be 1.97 µg/mL, the “tlast Brain” value was determined as 144 h and the “tlast Plasma” value amounted to 144 h. Besides, in data set [3] (20 mg/kg p.o., mice), the “AUClast Plasma” value is 246 µg·h/mL, the “Cmax Brain” value turned out to be 4.84 µg/mL, the “tlast Brain” value was 144 h and the “tlast Plasma” value came to 144 h. In addition, in data set [3], the Kp was 2.2. Also, the AUC(0-t) in data set [3] (iv, 2 mg/kg i.v., mice) turned out to be 52.7 µg·h/mL. For the same compound, the AUC(0-t) in data set [3] (po, 20 mg/kg p.o., mice) is 400 µg·h/mL.
Regarding `O[C@@H](c1cc(-c2ccc(Cl)cc2)nc2ccccc12)[C@H]1CCCCN1` [Compound S21, (S)-(2-(4-chlorophenyl)quinolin-4-yl)((R)-piperidin-2-yl)methanol], in data set [1], the EC50 is 2.67 µM and the “potency with respect to S10 (viability)” value is recorded as “equal or increased potency”. Besides, in data set [3] (2 mg/kg i.v., mice), the “AUClast Plasma” value is 14.1 µg·h/mL, the “Cmax Brain” value is 0.777 µg/mL, the “tlast Brain” value is 72 h and the “tlast Plasma” value stood at 72 h. In data set [3] (20 mg/kg p.o., mice), the “AUClast Brain” value turned out to be 157 µg·h/mL, the “AUClast Plasma” value was found to be 183 µg·h/mL, the “Cmax Brain” value was 1.49 µg/mL and the “tlast Brain” value was found to be 144 h. Moreover, the “tlast Plasma” value in data set [3] (20 mg/kg p.o., mice) is 144 h. Besides, in data set [3], the Kp is 0.7. Moreover, the AUC(0-t) in data set [3] (iv, 2 mg/kg i.v., mice) amounted to 9.05 µg·h/mL.
For `O[C@@H](c1cc(-c2ccc(Cl)cc2)nc2ccccc12)[C@@H]1CCCCN1` [Compound S22, (S)-(2-(4-chlorophenyl)quinolin-4-yl)((S)-piperidin-2-yl)methanol], in data set [1], the EC50 came out at 10.5 µM and the “potency with respect to S10 (viability)” value is “significantly attenuated activity”.
As for `O[C@H](c1cc(-c2ccc(Cl)cc2)nc2ccccc12)[C@H]1CCCCN1` [Compound S23, (R)-(2-(4-chlorophenyl)quinolin-4-yl)((R)-piperidin-2-yl)methanol], in data set [1], the EC50 was 9.95 µM and the “potency with respect to S10 (viability)” value is recorded as “significantly attenuated activity”.
For `Cn1nnc2c(C(N)=O)ncn2c1=O` [temozolomide, reference compound], the EC50 in data set [4] stood at 139 µM.
